In patent US8927533B2, “Thio derivatives bearing lactams as potent HDAC inhibitors and their uses as medicaments” (SIGMA-TAU Industrie Farmaceutiche Riunite S.p.A., priority 2011, dated 2015) one finds IC50, TVI % and BWL % data, which are given here for 21 compounds.

As a reminder, the IC50 is the midpoint of a concentration-inhibition curve.

The test system of data set [1] is NCI-H460 non-small cell lung carcinoma cells. Description: Cytotoxicity, sulphorodamine B, H460. To be noted: Homo sapiens, NCI-H460, read-out: H460 cell line IC50 (μM).
Description: (§2) The plates were incubated for 24 h at 37° C., after which they were washed 3 times by removal of the supernatant and addition of PBS. The plates were then incubated for further 48 h at 37° C. 200 μl PBS and 50 μl of cold 80% TCA were added and the plates were incubated on ice for at least 1 h. TCA was removed and the plates were washed 3 times by immersion in distilled-water. They were then dried on paper at 40° C. for 5 min. 200 μl of 0.4% sulphorodamine B in 1% acetic acid were added. The plates were incubated at room temperature for further 30 min. Sulphorodamine B was removed, and the plates were washed 3 times by immersion in 1% acetic acid and were dried on paper and at 40° C. for 5 min. Then 200 μl Tris 10 mM were added. The plates were kept under magnetic stirring for 20 min. Cell survival was determined by means of optical density by a Multiskan spectrofluorimeter at 540 nm. The amount of cells killed was calculated as the percentage decrease in sulphorodamine B binding compared to control cultures.
For data set [2], the system named is HCT116 colon cancer cells. Description: Cytotoxicity, sulphorodamine B, HCT116. To be noted: Homo sapiens, HCT-116, read-out: HCT116 cell line IC50 (μM).
Description: as §2
Another data set relates to NCI-H460 NSCLC. Description: Antitumour activity, NCI-H460 xenograft (Example 48).
Another data set concerns HCT116 colon cancer. Description: Antitumour activity, HCT116 xenograft, oral (Example 49). To be noted: 100 mg/10 ml/kg p.o., PEG200/DMSO/Cremophor EL. The data set is classed as in vivo, mice. From the text:
(§1) The experiment of example 48 was repeated with another compound on mice animal model developing HCT116 colon cancer as described above or A2780 ovarian cancer, and administering the drugs solubilised in orally in PEG200/DMSO/Cremophor EL (Sigma): 85/10/5 (volume percentage).

The test system of data set [3] is K562 chronic myeloid leukemia cells. Nature of the data set: Cytotoxicity extended panel, K562. The data set is classed as cell-based. To be noted: Homo sapiens, suspension cells, 72 h. The procedure: Cells were seeded in 96-well tissue culture plates at approximately 10% confluence. They were allowed to attach and recover for at least 24 h. Compounds of the present invention were then added to each well at various concentrations in order to define cell survival inhibition IC50. The plates were incubated for 72 h at 37° C., after which time they were washed 3 times by removal of the supernatant. 200 μl of PBS and 50 μl of cold 80% TCA were added and the plates were incubated on ice for at least 1 h. TCA was removed and the plates were washed 3 times by immersion in distilled water. They were then dried on paper at 40° C. for 5 min. 200 μl of 0.4% sulphorodamine B in 1% acetic acid were added. The plates were incubated at room temperature for further 30 min. Sulphorodamine B was removed, and the plates were washed 3 times by immersion in 1% acetic acid and were dried on paper at 40° C. for 5 min. Then 200 μl Tris 10 mM were added. The plates were kept under magnetic stirring for 20 min. Cell survival was determined by means of optical density by a Multiskan spectrofluorimeter at 540 nm. The amount of cells killed was calculated as the percentage decrease in sulphorodamine B binding compared to control cultures. The IC50 values (reported in Table 5) were calculated with the “ALLFIT” program. […]

The subject of data set [4] is HCT116 colon cancer cells. Nature of the data set: Antitumour activity, HCT116 xenograft (Example 48). The data set is classed as in vivo, CD1 nude mice. To be noted: 100 mg/10 ml/kg p.o., qd×5/w×3w.
Description: (§3) The tested derivatives were administered as a suspension in PBS/DMSO/Cremophor EL (Sigma): 85/10/5 (volume percentage). The antitumour activity was determined by measuring tumour diameters with a Vernier calliper according to the Formula TV=d^2×D/2
(§4) where d and D are the shortest and longest diameters, respectively.
(§5) When tumours reached a volume of about 1000 mm^3, mice were sacrificed by cervical dislocation. The efficacy of the drug was assessed as the tumour volume inhibition according to the Formula reported underneath:
(§6) Body weight recording was carried out to evaluate body weight loss as calculated in the equation underneath:
(§7) Wherein BW day x corresponds to the mean weight at day x of the experiment meanwhile BW day 1 corresponds to the mean weight at the first day of the experiment.
In data set [5] the test system is H929 multiple myeloma cells. Description: Antitumour activity, H929 xenograft (Example 48). The data set is classed as in vivo, CD1 nude mice. To be noted: 100 mg/10 ml/kg i.p., qd×5/w×3w.
Description: as §3, §4, §5, §6, §7
A further data set deals with A2780 ovarian cancer. Nature of the data set: Antitumour activity, A2780 xenograft, oral (Example 49). To be noted: 100 mg/10 ml/kg p.o., PEG200/DMSO/Cremophor EL. The class given is in vivo, mice.
Excerpt: as §1

Where [6] appears, read: 100 mg/10 ml/kg i.p., qd×5/w×3w.

Description for NCI-H460 NSCLC: as §3, §4, §5, §6, §7

Regarding `CC(=O)SCCCCC[C@H](NC(=O)[C@@H]1CCC(=O)N1)C(=O)Nc1ccccc1` [Example 11, Thioacetic acid S—{(S)-6-[((S)-5-oxo-pyrrolidine-2-carbonyl)-amino]-6-phenylcarbamoyl-hexyl}ester], in data set [1], the IC50 was under 0.5 µM.

For `CC(=O)SCCCCC[C@H](NC(=O)[C@@H]1CCCC(=O)N1)C(=O)Nc1ccc(C)cc1` [Example 15, Thioacetic acid S—{(S)-6-[((S)-6-oxo-piperidine-2-carbonyl)-amino]-6-p-tolylcarbamoyl-hexyl}ester], the IC50 in data set [1] is under 0.5 µM.

In the case of `CC(=O)SCCCCC[C@H](NC(=O)[C@@H]1CCC(=O)N1)C(=O)Nc1cccc(C)c1` [Example 7, Thioacetic acid S—{(S)-6-[((S)-5-oxo-pyrrolidine-2-carbonyl)-amino]-6-m-tolylcarbamoyl-hexyl}ester], the IC50 in data set [1] was under 0.5 µM.

Turning to `CC(=O)SCCCCC[C@H](NC(=O)[C@H]1C(=O)NC[C@H]1c1ccccc1)C(=O)Nc1ccccc1` (relative stereo) [Example 20, Thioacetic acid S—{(S)-6-[((3R*,4R*)-2-oxo-4-phenyl-pyrrolidine-3-carbonyl)-amino]-6-phenylcarbamoyl-hexyl}ester], the IC50 in data set [2] was 0.5 to 1 µM.

On to `N.N.[Cl][Pt][Cl]` [Cisplatin], for which the TVI % with NCI-H460 NSCLC (2 mg/10 ml/kg i.p., q4d/w×3w) is reported as 56%.

Consider `CC(=O)SCCCCC[C@H](NC(=O)[C@@H]1CCCC(=O)N1)C(=O)NC1CCCC1` [Example 17, Thioacetic acid S—{(S)-6-[((S)-6-oxo-piperidine-2-carbonyl)-amino]-6-cyclopentylcarbamoyl-hexyl}ester], for which the IC50 in data set [2] is 1 to 10 µM.

On to `CC(=O)SCCCCC[C@H](NC(=O)[C@H]1CCC(=O)N1C)C(=O)Nc1cccc(C)c1` [Example 6, Thioacetic acid S—{(S)-6-[((R)-1-methyl-5-oxo-pyrrolidine-2-carbonyl)-amino]-6-m-tolylcarbamoyl-hexyl}ester], for which the IC50 in data set [1] is under 0.5 µM.

`CC(=O)SCCCCC[C@H](NC(=O)[C@@H]1CC(=O)N1)C(=O)Nc1ccccc1` [Example 1, Thioacetic acid S—{(S)-6-[((S)-4-oxo-azetidine-2-carbonyl)-amino]-6-phenylcarbamoyl-hexyl}ester]: the IC50 in data set [1] is under 0.5 µM.

In the case of `CC(=O)SCCCCC[C@H](NC(=O)[C@H]1C(=O)NC[C@@H]1c1ccccc1)C(=O)Nc1ccccc1` (relative stereo) [Example 19, Thioacetic acid S—{(S)-6-[((3R*,4S*)-2-oxo-4-phenyl-pyrrolidine-3-carbonyl)-amino]-6-phenylcarbamoyl-hexyl}ester], the IC50 in data set [1] and in data set [2] was under 0.5 µM each time.

In the data set on HCT116 colon cancer, `CC(=O)SCCCCCCC(=O)Nc1ccccc1` [Compound A, Thioacetic acid S-(6-phenylcarbamoyl-hexyl)ester] yielded a BWL % of 0% and a TVI % of 11%.

Regarding `CC(=O)SCCCCC[C@H](NC(=O)[C@@H]1CCCC(=O)N1)C(=O)Nc1cccc(C)c1` [Example 16, Thioacetic acid S—{(S)-6-[((S)-6-oxo-piperidine-2-carbonyl)-amino]-6-m-tolylcarbamoyl-hexyl}ester], in data set [1], the IC50 is under 0.5 µM.

Turning to `O=C(CCCCCCC(=O)Nc1ccccc1)NO` [SAHA, suberoylanilide hydroxamic acid, reference compound], the IC50 in data set [3] worked out at 0.13 µM. Moreover, the BWL % in data set [4] was 0%; in data set [5], 3%; in the data set on HCT116 colon cancer, 1%; in the data set with A2780 ovarian cancer it was 4%; with NCI-H460 NSCLC (setting [6]), 0%. Further, the TVI % is on record as 47% in data set [4]; 21% in data set [5]; 32% in the data set on HCT116 colon cancer; 53% in the data set on A2780 ovarian cancer; 27% in the data set with NCI-H460 NSCLC (setting [6]).

In the case of `CC(=O)SCCCCC[C@H](NC(=O)[C@H]1CCC(=O)N1)C(=O)Nc1cccc(C(F)(F)F)c1` [Example 18, Thioacetic acid S—[(S)-6-[((R)-5-oxo-pyrrolidine-2-carbonyl)-amino]-6-(3-trifluoromethyl-phenylcarbamoyl)-hexyl]ester], the IC50 in data set [1] was under 0.5 µM.

`CC(=O)SCCCCC[C@H](NC(=O)C1CCCNC1=O)C(=O)Nc1ccccc1` (stereo in doubt) [Example 22, Thioacetic acid S—{(S)-6-[(R*)-(2-oxo-piperidine-3-carbonyl)-amino]-6-phenylcarbamoyl-hexyl}ester]: the IC50 in data set [2] lay in the range of 1 to 10 µM.

For the compound `CCOC(=S)OCCCCC[C@H](NC(=O)[C@H]1CCC(=O)N1)C(=O)Nc1ccccc1` [Example 42, Thiocarbonic acid ethyl ester {(S)-6-[((R)-5-oxo-pyrrolidine-2-carbonyl)-amino]-6-phenylcarbamoyl-hexyl}ester], in data set [1], the IC50 is under 0.5 µM.

Regarding `CC(=O)SCCCCC[C@H](NC(=O)[C@@H]1CCCC(=O)N1)C(=O)NCCc1cccc(C)c1` [Example 5, Thioacetic acid S—[(S)-6-[((S)-6-oxo-piperidine-2-carbonyl)-amino]-6-(2-m-tolyl-ethylcarbamoyl)-hexyl]ester], the IC50 in data set [1] fell in the range of 1 to 10 µM.

For `CC(C)C(=O)SCCCCC[C@H](NC(=O)[C@@H]1CCCC(=O)N1)C(=O)Nc1ccccc1` [Example 43, Thioisobutyric acid S—{(S)-6-[((S)-6-oxo-piperidine-2-carbonyl)-amino]-6-phenylcarbamoyl-hexyl}ester], in data set [1], the IC50 was in the range of 1 to 10 µM.

Take `CCOC(=S)OCCCCC[C@H](NC(=O)[C@@H]1CCCC(=O)N1)C(=O)Nc1ccccc1` [Example 41, Thiocarbonic acid ethyl ester {(S)-6-[((S)-6-oxo-piperidine-2-carbonyl)-amino]-6-phenylcarbamoyl-hexyl}ester]: the IC50 in data set [1] lay within 0.5 to 1 µM.

Turning to `CC(=O)SCCCCC[C@H](NC(=O)[C@@H]1CC=CC(=O)N1)C(=O)Nc1ccccc1` [Example 10, Thioacetic acid S—{(S)-6-[((S)-6-oxo-1,2,3,6-tetrahydro-pyridine-2-carbonyl)-amino]-6-phenylcarbamoyl-hexyl}ester], in data set [1], the half-maximal inhibitory concentration (IC50) is under 0.5 µM.

`CC(=O)SCCCCC[C@H](NC(=O)[C@H]1CCC(=O)N1)C(=O)Nc1cccc(C)c1` [Example 8, Thioacetic acid S—{(S)-6-[((R)-5-oxo-pyrrolidine-2-carbonyl)-amino]-6-m-tolylcarbamoyl-hexyl}ester]: the half-maximal inhibitory concentration (IC50) in data set [1] is under 0.5 µM.

On to `CC(=O)SCCCCC[C@H](NC(=O)[C@H]1CCCC(=O)N1)C(=O)Nc1ccccc1` [Example 13, Thioacetic acid S—{(S)-6-[((R)-6-oxo-piperidine-2-carbonyl)-amino]-6-phenylcarbamoyl-hexyl}ester], for which, in data set [1], the IC50 is under 0.5 µM.
